Test results as given in patent US20090170897A1, “Method of Treating Neuropathic Pain” (Pfizer, Inc., priority 2004, published 2009).

Tests used:
[1] = target: T1, CRTH2 receptor (Homo sapiens, UniProt Q9Y5Y4); test: competition binding of 3H-PGD2 at CRTH2 and DP receptors (selectivity); conditions: competition with 3H-PGD2 binding, IC50 at both receptors
T1 construct: Flag peptide (behind a 'prolac' signal peptide) (N); expressed in transfected cells
T1 sequence (Q9Y5Y4 1-395): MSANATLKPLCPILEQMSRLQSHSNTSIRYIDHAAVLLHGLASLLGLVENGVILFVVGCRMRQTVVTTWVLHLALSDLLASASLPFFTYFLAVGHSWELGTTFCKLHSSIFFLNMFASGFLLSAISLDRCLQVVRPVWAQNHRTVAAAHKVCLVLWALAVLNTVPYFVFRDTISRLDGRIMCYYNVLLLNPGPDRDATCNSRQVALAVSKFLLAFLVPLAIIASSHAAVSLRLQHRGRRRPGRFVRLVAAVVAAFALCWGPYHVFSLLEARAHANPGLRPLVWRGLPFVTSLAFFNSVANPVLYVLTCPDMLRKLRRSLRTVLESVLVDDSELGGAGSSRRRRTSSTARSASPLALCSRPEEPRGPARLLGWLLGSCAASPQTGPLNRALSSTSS
Protocol: A CRTH2 receptor ligand or antagonist, can be tested for selectivity for the CRTH2 receptor in comparison with DP. In the assay, the capacity of each test compound to compete with binding of ^3H-PGD2 is measured at both the CRTH2 and DP receptors, and an IC50 value (in μM) is determined. Controls can be set up using cold PGD2 to compete with ^3H-PGD2. Any of the above mentioned binding assay procedures can be used. Selectivity of CRTH2 receptor antagonists should be at least 10 fold compared to other GPCRs especially the D type of prostanoid receptor or DP receptor (N-cyclopropyl-N-[2-methyl-1-(pyridine-3-carbonyl)-1,2,3,4-tetrahydro-quinolin-4-yl]-acetamide is >50 fold selective), preferably it should be at least 100 fold selective and even more preferably at least 1000 fold selective, alternatively the antagonist should be selective for CRTH2 receptor over any of the receptors C3a, C5a, FMLP, LTB4, GPCR0269, GPCR0232 or GPCR0288.

[2] = test system: Chronic Constriction Injury (CCI) rat model of neuropathic pain; test: CCI-induced static allodynia (von Frey hairs, PWT); type: in vivo
Protocol: (§1) Male Sprague Dawley rats weighing 150-400 g obtained from Charles River (Manston, Kent, UK.) were housed in groups of 3. All animals were kept under a 12 h light/dark cycle (lights on at 07 h 00 min) with food and water ad libitum. All experiments were carried out by an observer blind to the treatments and in accordance with the Home Office Animals (Scientific Procedures) Act 1986.
The CCI of sciatic nerve was performed as previously described by Bennett and Xie (Bennett G J, Xie Y K. A peripheral mononeuropathy in rat that produces disorders of pain sensation like those seen in man. Pain:33:87-107, 1988). Animals were anaesthetised with a 2% isofluorane/O2 mixture. The right hind thigh was shaved and swabbed with 1% iodine. Animals were then transferred to a homeothermic blanket for the duration of the procedure and anaesthesia maintained during surgery via a nose cone. The skin was cut along the line of the thighbone. The common sciatic nerve was exposed at the middle of the thigh by blunt dissection through biceps femoris. About 7 mm of nerve was freed proximal to the sciatic trifurcation, by inserting forceps under the nerve and the nerve gently lifted out of the thigh. Suture was pulled under the nerve using forceps and tied in a simple knot until slight resistance was felt and then double knotted. The procedure was repeated until 4 ligatures (4-0 silk) were tied loosely around the nerve with approx 1 mm spacing. The incision was closed in layers.
(§2) Animals were habituated to wire bottom test cages prior to the assessment of allodynia. Static allodynia was evaluated by application of von Frey hairs (Stoelting, Wood Dale, Ill., USA.) in ascending order of force (0.6, 1, 1.4, 2, 4, 6, 8, 10, 15 and 26 grams) to the plantar surface of hind paws. Each von Frey hair was applied to the paw for a maximum of 6 sec, or until a withdrawal response occurred. Once a withdrawal response to a von Frey hair was established, the paw was re-tested, starting with the filament below the one that produced a withdrawal, and subsequently with the remaining filaments in descending force sequence until no withdrawal occurred. The highest force of 26 g lifted the paw as well as eliciting a response, thus represented the cut off point. Each animal had both hind paws tested in this manner. The lowest amount of force required to elicit a response was recorded as paw withdrawal threshold (PWT) in grams. Static allodynia was defined as present if animals responded to a stimulus of, or less than, 4 g, which is innocuous in naive rats (Field M J, Bramwell S, Hughes J, Singh L. Detection of static and dynamic components of mechanical allodynia in rat models of neuropathic pain: are they signalled by distinct primary sensory neurones? Pain, 1999; 83:303-11).
(§3) All the experiments were conducted blind. Static allodynia was expressed as median [LQ; UQ] and analysed by Mann Whitney U test. Dynamic allodynia and thermal hyperalgesia were expressed as arithmetic mean±SEM and analysed by ANOVA.

[3] = test system: Streptozocin (STZ)-induced diabetes neuropathy in the rat; test: STZ-induced static allodynia (von Frey hairs, PWT); type: in vivo
Protocol: as §1
Diabetes was induced by a single intraperitoneal injection of streptozotocin (50 mg/kg) freshly dissolved in 0.9% sterile saline. Streptozotocin injection induces a reproducible mechanical allodynia within 3 weeks, lasting for at least 7 weeks (Chen and Pan, (Chen S R and Pan H L. Hypersensitivity of Spinothalamic Tract Neurons Associated With Diabetic Neuropathic Pain in Rats. J Neurophysiol 87: 2726-2733, 2002).
as §2, §3

[4] = test system: Carrageenan-induced thermal hyperalgesia (CITH) in the rat; test: Carrageenan-induced thermal hyperalgesia (CITH), rat plantar test; type: in vivo; conditions: 25 mg/kg PO
Protocol: as §1
Thermal hyperalgesia was assessed using the rat plantar test (Ugo Basile, Comerio, Italy), according to a method modified by Hargreaves et al. (1988). Briefly, rats were habituated to the apparatus that consisted of three individual Perspex boxes on a glass table. A mobile radiant heat source was located under the table and focused onto the desired paw. Paw withdrawal latencies (PWLs) were recorded three times for both hind paws of each animal, the mean of which represented baseline for left and right hind paws. The apparatus was calibrated to give a PWL of approximately 10 s in naïve rats. To prevent tissue damage of the plantar zone, a 22.5 sec cut-off was observed. Lambda carrageenan was injected intraplantarly (100 μl, 20 mg/ml) the right hind paw and baseline recordings of PWT were taken 2 hr post administration.
as §3

[5] = compound level in rat CSF after oral administration; type: in vivo
Protocol: Moreover the antagonist produced a long lasting anti-hyperalgesic effect in the CITH rat model. N-cyclopropyl-N-[2-methyl-1-(pyridine-3-carbonyl)-1,2,3,4-tetrahydro-quinolin-4-yl]-acetamide was dosed in the rat blood and CSF at various time points after oral administration.

In the case of CC(=O)N(C1CC1)C1CC(C)N(C(=O)c2cccnc2)c2ccccc21 (stereo not drawn) [N-cyclopropyl-N-[2-methyl-1-(pyridine-3-carbonyl)-1,2,3,4-tetrahydro-quinolin-4-yl]-acetamide], the “selectivity for CRTH2 receptor compared to DP receptor” value [1] is reported as > 50 fold, the “time of peak effect, static allodynia” value ([2]; 25 mg/kg PO (MED), post administration) is reported as 1 h and the “effect on maintenance of CCI-induced static allodynia” value ([2]; 12.5, 25 and 50 mg/kg PO, from 14 days post surgery) is reported as “reversed the maintenance of CCI-induced static and dynamic allodynia in a dose dependent manner”. For the same molecule, the “MED, static allodynia” value ([2]; PO) was 25 mg/kg, the “static allodynia reversal relative to gabapentin” value ([2]; highest dose (50 mg/kg PO) vs gabapentin 100 mg/kg PO) was “curve profile comparable to gabapentin” and the “onset of anti-allodynic effect, static allodynia” value ([2]; highest dose (50 mg/kg PO), post dose, p<0.01 vs vehicle) was 30 min. The “duration of biologically relevant effect, STZ static allodynia” value ([3]; 25 mg/kg PO) was “up to 2 hr”, the “time of peak effect, STZ static allodynia” value ([3]; 25 mg/kg PO, post compound dose) was 1 h and the “effect on maintenance of STZ-induced static allodynia” value ([3]; compound 25 mg/kg PO, gabapentin 100 mg/kg PO (positive control)) was “reversed”. For the same molecule, the “effect in the contralateral paw” value [4] was “no effect”, the “effect on maintenance of thermal hyperalgesia (ipsilateral paw)” value [4] was “completely reversed” and the “paw withdrawal latency at peak effect (mean±SEM)” value ([4]; 2 h post administration, ipsilateral paw, vehicle 3.9±0.2) was 10.1±0.6. For the same molecule, the “time of peak effect, thermal hyperalgesia” value ([4]; post administration) was 2 h, the “duration of anti-hyperalgesic effect” value ([4]; post compound administration) was 5 h and the “blood brain barrier penetration” value [5] was “appears to cross the blood brain barrier”.
